Laboratory results: patent publication US8420119B2, “Drug composition for treating tumor with polymeric micelle encapsulating anti-neoplastic” (Industrial Technology Research Institute, priority 2009, dated 2013)
Values after ≈ are worked out from the molar mass of the structure shown.

Assays:
[1] = test system: Human colon cancer HT29 cells; assay: In vivo pharmaceutical efficiency comparison of CCP201 with free CPT11, HT29 tumor; parameters: species or system immunodeficiency mice
Experimental: (§1) Human colon cancer HT29 cells were implanted subcutaneously at the dorsal muscles of immunodeficiency mice. […] The administration frequency was twice a week and five times in total. The tumor size and weight of each mouse was monitored. The tumor size was measured and calculated according to the formula V=½ ab^2, wherein V is the volume of the tumor, a is the longest diameter of the tumor, and b is the shortest diameter of the tumor.

[2] = test system: AS2; assay: MTT assay AS2; format: cell-based, human; details: Lung, AS2, 72 hours
Experimental: (§2) Various human cancer lines, such as A549, AS2, and H460, were implanted onto multi-well plates and Dulbecco's Modified Eagle Media (high glucose) with 10% of fetal bovine serum and 1% of P/S being added to each well. […] Then a 20 μL of 0.5 mg/ml MTT (3-(4,5-dimethylthiazol-2-yl)-2,5-diphenyltetrazolium bromide) solution was added to each well to start the reaction. After 2 hours, the suspension of each well was removed and DMSO was added into the well to dissolve formazan, which was formed during the reaction. The living cell concentration was then obtained by analyzing the OD570 and OD600 data of each well.

[3] = test system: Human colon cancer HT29 cells; assay: In vivo pharmaceutical efficiency comparison of SCP201 with free CPT11, HT29 tumor; parameters: species or system immunodeficiency mice
Experimental: as §1, with “the formula V=1/2 ab^2, wherein” for “the formula V=½ ab^2, wherein”, “volume of tumor, a” for “volume of the tumor, a”, “the tumor. Human colon cancer Colo205 cells were also tested by the same method described above, except that the mice were divided into 6 groups.” for “the tumor.”

[4] = test system: OVCAR-3; assay: MTT assay OVCAR-3; format: cell-based, human; details: Ovarian, OVCAR-3, 72 hours
Experimental: as §2

[5] = test system: HT29; assay: MTT assay HT29; format: cell-based, human; details: Colorectal, HT29, 72 hours
Experimental: as §2

[6] = test system: RPMI2650; assay: MTT assay RPMI2650; format: cell-based, human; details: Nasalseptum, RPMI2650, 72 hours
Experimental: as §2

[7] = test system: SCC-25; assay: MTT assay SCC-25; format: cell-based, human; details: Tongue, SCC-25, 72 hours
Experimental: as §2

[8] = test system: Human colon cancer Colo205 cells; assay: In vivo pharmaceutical efficiency comparison of SCP201 with free CPT11, Colo205 tumor; parameters: species or system immunodeficiency mice
Experimental: as §1, with “the formula V=1/2 ab^2, wherein” for “the formula V=½ ab^2, wherein”, “volume of tumor, a” for “volume of the tumor, a”, “the tumor. Human colon cancer Colo205 cells were also tested by the same method described above, except that the mice were divided into 6 groups.” for “the tumor.”

[9] = test system: A549; assay: MTT assay A549; format: cell-based, human; details: Lung, A549, 72 hours
Experimental: as §2

[10] = test system: H460; assay: MTT assay H460; format: cell-based, human; details: Lung, H460, 72 hours
Experimental: as §2

[11] = test system: Colo 205; assay: MTT assay Colo 205; format: cell-based, human; details: Colorectal, Colo 205, 72 hours
Experimental: as §2

[12] = dose 10 mg/kg, total dose 50 mg/kg
[13] = dose 40 mg/kg, total dose 200 mg/kg

SMILES: CCc1c2c(nc3ccc(OC(=O)N4CCC(N5CCCCC5)CC4)cc13)-c1cc3c(c(=O)n1C2)COC(=O)[C@]3(O)CC [CPT11, 7-ethyl-10-[4-(1-piperidino)-1-piperidono]carbonyloxy camptothecin]
- Tumor Size (mm^3) Vol. ([1]; day 0, 10 mg/kg): 469.6 mm^3
- Tumor Size (mm^3) Vol. ([1]; day 4, 10 mg/kg): 745.8 mm^3
- Tumor Size (mm^3) Vol. ([1]; day 8, 10 mg/kg): 723.4 mm^3
- Tumor Size (mm^3) Vol. ([1]; day 11, 10 mg/kg): 740.8 mm^3
- Tumor Size (mm^3) Vol. ([1]; day 13, 10 mg/kg): 786.0 mm^3
- Tumor Size (mm^3) Vol. ([1]; day 15, 10 mg/kg): 757.5 mm^3
- Tumor Size (mm^3) Vol. ([1]; day 18, 10 mg/kg): 879.8 mm^3
- Tumor Size (mm^3) Vol. ([1]; day 20, 10 mg/kg): 902.7 mm^3
- Tumor Size (mm^3) Vol. ([1]; day 22, 10 mg/kg): 927.3 mm^3
- Tumor Size (mm^3) Vol. ([1]; day 27, 10 mg/kg): 1217.6 mm^3
- Maximum weight loss [1, 12]: 27 days
- Maximum weight loss % [1, 12]: 17.3%
- TIR % (day 21) [1, 12]: 35%
- IC50 [2]: 4200 ± 480 µg/mL (≈ 7.16 mM)
- Tumor Size (mm^3) Vol. ([3]; day 0, 10 mg/kg): 142.8 mm^3
- Tumor Size (mm^3) Vol. ([3]; day 3, 10 mg/kg): 227.8 mm^3
- Tumor Size (mm^3) Vol. ([3]; day 6, 10 mg/kg): 292.7 mm^3
- Tumor Size (mm^3) Vol. ([3]; day 9, 10 mg/kg): 384.2 mm^3
- Tumor Size (mm^3) Vol. ([3]; day 12, 10 mg/kg): 492.0 mm^3
- Tumor Size (mm^3) Vol. ([3]; day 15, 10 mg/kg): 666.0 mm^3
- Tumor Size (mm^3) Vol. ([3]; day 18, 10 mg/kg): 853.5 mm^3
- Tumor Size (mm^3) Vol. ([3]; day 21, 10 mg/kg): 997.7 mm^3
- Tumor Size (mm^3) Vol. ([3]; day 24, 10 mg/kg): 1308.5 mm^3
- Tumor Size (mm^3) Vol. ([3]; day 27, 10 mg/kg): 1732.2 mm^3
- Maximum weight loss [3, 12]: 27 days
- Maximum weight loss % [3, 12]: 9.4%
- TIR % (day 21) [3, 12]: 23%
- IC50 [4]: 16750 ± 1430 µg/mL (≈ 28.6 mM)
- IC50 [5]: 1900 µg/mL (≈ 3.24 mM)
- IC50 [6]: 1470 ± 260 µg/mL (≈ 2.51 mM)
- IC50 [7]: 12350 ± 1160 µg/mL (≈ 21.1 mM)
- Tumor Size (mm^3) Vol. ([8]; day 0, 40 mg/kg): 152.1 mm^3
- Tumor Size (mm^3) Vol. ([8]; day 1, 10 mg/kg): 175.1 mm^3
- Tumor Size (mm^3) Vol. ([8]; day 1, 40 mg/kg): 184.6 mm^3
- Tumor Size (mm^3) Vol. ([8]; day 3, 10 mg/kg): 192.0 mm^3
- Tumor Size (mm^3) Vol. ([8]; day 3, 40 mg/kg): 239.3 mm^3
- Tumor Size (mm^3) Vol. ([8]; day 6, 10 mg/kg): 215.0 mm^3
- Tumor Size (mm^3) Vol. ([8]; day 6, 40 mg/kg): 215.0 mm^3
- Tumor Size (mm^3) Vol. ([8]; day 8, 10 mg/kg): 251.2 mm^3
- Tumor Size (mm^3) Vol. ([8]; day 8, 40 mg/kg): 184.7 mm^3
- Tumor Size (mm^3) Vol. ([8]; day 10, 10 mg/kg): 262.1 mm^3
- Tumor Size (mm^3) Vol. ([8]; day 10, 40 mg/kg): 161.7 mm^3
- Tumor Size (mm^3) Vol. ([8]; day 13, 10 mg/kg): 263.5 mm^3
- Tumor Size (mm^3) Vol. ([8]; day 13, 40 mg/kg): 110.2 mm^3
- Tumor Size (mm^3) Vol. ([8]; day 15, 10 mg/kg): 274.1 mm^3
- Tumor Size (mm^3) Vol. ([8]; day 15, 40 mg/kg): 70.9 mm^3
- Tumor Size (mm^3) Vol. ([8]; day 17, 10 mg/kg): 293.7 mm^3
- Tumor Size (mm^3) Vol. ([8]; day 17, 40 mg/kg): 59.1 mm^3
- Tumor Size (mm^3) Vol. ([8]; day 20, 10 mg/kg): 301.4 mm^3
- Tumor Size (mm^3) Vol. ([8]; day 20, 40 mg/kg): 37.8 mm^3
- Maximum weight loss % [8, 12]: 4.2%
- Maximum weight loss (day) [8, 12]: (18) day
- TIR % (day 20) [8, 12]: 61%
- Maximum weight loss % [8, 13]: 3.7%
- Maximum weight loss (day) [8, 13]: (8) day
- TIR % (day 20) [8, 13]: 95%
- IC50 [9]: 13340 ± 1330 µg/mL (≈ 22.7 mM)
- IC50 [10]: 1890 ± 140 µg/mL (≈ 3.22 mM)
- IC50 [11]: 6840 ± 990 µg/mL (≈ 11.7 mM)
